Assay results as given in article PMC7854729 (Nature Communications, 2021).
Several values for one entry are separate records, joined by “and”; a condition that tells them apart may be missing. Equal entries are not always repeated. Where two headings read alike, the source gives them in different places. Where a SMILES comes first, the peptide text is derived from it.

Columns and labels:
SARS-CoV-2 PLpro = SARS-CoV-2 PLpro (Severe acute respiratory syndrome coronavirus 2, UniProt P0DTD1); experiment: biochemical
SARS-CoV-2 = experiment: microbe, parasite or virus in culture; format: cell-based, SARS-CoV-2 (nCoV/Washington/1/2020) in Vero E6 cells; settings: for EC50: Severe acute respiratory syndrome coronavirus 2, Vero C1008, 24 h, read-out: EC50; for inhibition of virus replication: Vero E6, SARS-CoV-2; for Percent Spike Positive Cells: relative to DMSO treated cells, single replicates
PLpro-WT = target: T1, PLpro-WT (Severe acute respiratory syndrome coronavirus 2, UniProt P0DTD1); format: biochemical
T1 construct: PLpro is a domain of Nsp3—a large multidomain protein; made in house; host or cells: E. coli BL21(DE3)-Gold

## CCCCC(=O)Nc1ccc(C)c(C(=O)N[C@H](C)c2cccc3ccccc23)c1 [Compound 7, 5-pentanoylamino-2-methyl-N-[(1R)-1-naphthalen-1-ylethyl]benzamide]
SARS-CoV-2 PLpro; Log(M) -3.30103, listed as 7 (Snyder514)
  PLpro assay signal (source data Figure 2, single replicates): 189 and 225 and 281
SARS-CoV-2 PLpro; Log(M) -3.60206, listed as 7 (Snyder514)
  PLpro assay signal (source data Figure 2, single replicates): 257 and 276 and 274
SARS-CoV-2 PLpro; Log(M) -4, listed as 7 (Snyder514)
  PLpro assay signal (source data Figure 2, single replicates): 332 and 331 and 303
SARS-CoV-2 PLpro; Log(M) -4.30103, listed as 7 (Snyder514)
  PLpro assay signal (source data Figure 2, single replicates): 346 and 354 and 361
SARS-CoV-2 PLpro; Log(M) -4.69897, listed as 7 (Snyder514)
  PLpro assay signal (source data Figure 2, single replicates): 672 and 717 and 815
SARS-CoV-2 PLpro; Log(M) -5, listed as 7 (Snyder514)
  PLpro assay signal (source data Figure 2, single replicates): 856 and 922 and 1036
SARS-CoV-2 PLpro; Log(M) -5.39794, listed as 7 (Snyder514)
  PLpro assay signal (source data Figure 2, single replicates): 1160 and 1233 and 1196
SARS-CoV-2 PLpro; Log(M) -5.69897, listed as 7 (Snyder514)
  PLpro assay signal (source data Figure 2, single replicates): 1260 and 1362 and 1272
SARS-CoV-2 PLpro; Log(M) -6.09691, listed as 7 (Snyder514)
  PLpro assay signal (source data Figure 2, single replicates): 1429 and 1375 and 1302
SARS-CoV-2 PLpro; Log(M) -6.39794, listed as 7 (Snyder514)
  PLpro assay signal (source data Figure 2, single replicates): 1493 and 1486 and 1598
SARS-CoV-2 PLpro; pH 7.3, read-out: IC50
  IC50: 12.7 ± 1.3 µM
SARS-CoV-2
  EC50: 5.2 ± 4.2 µM
  inhibition of virus replication: inhibiting virus replication
SARS-CoV-2; [Drug] 0.1 uM
  Percent Spike Positive Cells: 115% (2×) and 92%
SARS-CoV-2; [Drug] 1 uM
  Percent Spike Positive Cells: 69% (2×) and 115%
SARS-CoV-2; [Drug] 10 uM
  Percent Spike Positive Cells: 46% and 23% and 35%

## Nc1cc(C(=O)Nc2cccc3ccccc23)cc(C(F)(F)F)c1 [Compound 4]
SARS-CoV-2 PLpro; IC50
  IC50: 43.2 ± 9.4 µM
SARS-CoV-2 PLpro; Log(M) -0.30103, listed as 4 (Snyder550)
  PLpro assay signal (source data Figure 2, single replicates): 498 and 310 and 468
SARS-CoV-2 PLpro; Log(M) -0.60206, listed as 4 (Snyder550)
  PLpro assay signal (source data Figure 2, single replicates): 426 and 463 and 490
SARS-CoV-2 PLpro; Log(M) -1, listed as 4 (Snyder550)
  PLpro assay signal (source data Figure 2, single replicates): 617 and 632 and 562
SARS-CoV-2 PLpro; Log(M) -1.30103, listed as 4 (Snyder550)
  PLpro assay signal (source data Figure 2, single replicates): 679 and 720 and 747
SARS-CoV-2 PLpro; Log(M) -1.69897, listed as 4 (Snyder550)
  PLpro assay signal (source data Figure 2, single replicates): 956 and 920 and 944
SARS-CoV-2 PLpro; Log(M) -2, listed as 4 (Snyder550)
  PLpro assay signal (source data Figure 2, single replicates): 1073 and 1048 and 930
SARS-CoV-2 PLpro; Log(M) -2.39794, listed as 4 (Snyder550)
  PLpro assay signal (source data Figure 2, single replicates): 1192 and 1138 and 1087
SARS-CoV-2 PLpro; Log(M) -2.69897, listed as 4 (Snyder550)
  PLpro assay signal (source data Figure 2, single replicates): 1318 and 1220 and 924
SARS-CoV-2 PLpro; Log(M) -3.09691, listed as 4 (Snyder550)
  PLpro assay signal (source data Figure 2, single replicates): 1177 and 1051 and 1092
SARS-CoV-2 PLpro; Log(M) -3.39794, listed as 4 (Snyder550)
  PLpro assay signal (source data Figure 2, single replicates): 1045 and 1012 and 1221
SARS-CoV-2
  EC50: 1.7 ± 4.4 µM
  inhibition of virus replication: inhibiting virus replication
SARS-CoV-2; [Drug] 0.1 uM
  Percent Spike Positive Cells: 75% and 100% and 88%
SARS-CoV-2; [Drug] 1 uM
  Percent Spike Positive Cells: 88% and 81% and 63%
SARS-CoV-2; [Drug] 10 uM
  Percent Spike Positive Cells: 0%

## CC(=O)N[C@@H](CC(C)C)C(=O)N[C@@H](CCCCN)C(=O)NCC(=O)NCC(=O)Nc1ccc2c(C)cc(=O)oc2c1 [probe] (HELM PEPTIDE1{[ac].L.K.G.G.[Cc1cc(=O)oc2cc(N[*:1])ccc12]}$$$$V2.0)
PLpro-WT; 0.1 M PLP, time point 8
  fluorescence: 103 and 110 and 118
  fluorescence normalised to probe only: 2.146 and 2.292 and 2.458
PLpro-WT; 0.1 M PLP, time point 9
  fluorescence: 107 and 115 and 122
  fluorescence normalised to probe only: 2.229 and 2.396 and 2.542
PLpro-WT; 0.1 M PLP, time point 10
  fluorescence: 111 and 120 and 127
  fluorescence normalised to probe only: 2.3125 and 2.5 and 2.646
PLpro-WT; 0.1 M PLP, time point 11
  fluorescence: 115 and 124 and 132
  fluorescence normalised to probe only: 2.396 and 2.583 and 2.75
PLpro-WT; 0.1 M PLP, time point 12
  fluorescence: 115 and 129 and 133
  fluorescence normalised to probe only: 2.396 and 2.6875 and 2.771
PLpro-WT; 0.1 M PLP, time point 13
  fluorescence: 120 and 131 and 139
  fluorescence normalised to probe only: 2.5 and 2.729 and 2.896
PLpro-WT; 0.1 M PLP, time point 14
  fluorescence: 123
  fluorescence normalised to probe only: 2.5625 and 2.833 and 2.979
PLpro-WT; 0.2 M PLP, time point 8
  fluorescence: 260 and 288 and 278
  fluorescence normalised to probe only: 5.417 and 6 and 5.792
PLpro-WT; 0.2 M PLP, time point 9
  fluorescence: 295 and 313 and 300
  fluorescence normalised to probe only: 6.146 and 6.521 and 6.25
PLpro-WT; 0.2 M PLP, time point 10
  fluorescence: 321 and 335 and 319
  fluorescence normalised to probe only: 6.6875 and 6.979 and 6.646
PLpro-WT; 0.2 M PLP, time point 11
  fluorescence: 337 and 357 and 345
  fluorescence normalised to probe only: 7.021 and 7.4375 and 7.1875
PLpro-WT; 0.2 M PLP, time point 12
  fluorescence: 357 and 377 and 368
  fluorescence normalised to probe only: 7.4375 and 7.854 and 7.667
PLpro-WT; 0.2 M PLP, time point 13
  fluorescence: 379 and 400 and 381
  fluorescence normalised to probe only: 7.896 and 8.333 and 7.9375
PLpro-WT; 0.2 M PLP, time point 14
  fluorescence normalised to probe only: 8.167 and 8.792 and 8.417
PLpro-WT; 0.3 M PLP, time point 8
  fluorescence: 443 and 452 and 474
  fluorescence normalised to probe only: 9.229 and 9.417 and 9.875
PLpro-WT; 0.3 M PLP, time point 9
  fluorescence: 481 and 493 and 520
  fluorescence normalised to probe only: 10.0208 and 10.2708 and 10.8333
PLpro-WT; 0.3 M PLP, time point 10
  fluorescence: 519 and 530 and 558
  fluorescence normalised to probe only: 10.8125 and 11.0417 and 11.625
PLpro-WT; 0.3 M PLP, time point 11
  fluorescence: 560 and 573 and 600
  fluorescence normalised to probe only: 11.6667 and 11.9375 and 12.5
PLpro-WT; 0.3 M PLP, time point 12
  fluorescence: 594 and 609 and 643
  fluorescence normalised to probe only: 12.375 and 12.6875 and 13.3958
PLpro-WT; 0.3 M PLP, time point 13
  fluorescence: 632 and 646 and 681
  fluorescence normalised to probe only: 13.1667 and 13.4583 and 14.1875
PLpro-WT; 0.3 M PLP, time point 14
  fluorescence: 671 and 682 and 717
  fluorescence normalised to probe only: 13.9792 and 14.2083 and 14.9375
PLpro-WT; 0.5 M PLP, time point 8
  fluorescence: 891 and 894 and 883
  fluorescence normalised to probe only: 18.5625 and 18.625 and 18.3958
PLpro-WT; 0.5 M PLP, time point 9
  fluorescence: 972 and 978 and 964
  fluorescence normalised to probe only: 20.25 and 20.375 and 20.0833
PLpro-WT; 0.5 M PLP, time point 10
  fluorescence: 1053 and 1058 and 1040
  fluorescence normalised to probe only: 21.9375 and 22.0417 and 21.6667
PLpro-WT; 0.5 M PLP, time point 11
  fluorescence: 1137 and 1139 and 1118
  fluorescence normalised to probe only: 23.6875 and 23.7292 and 23.2917
PLpro-WT; 0.5 M PLP, time point 12
  fluorescence: 1204 and 1214 and 1189
  fluorescence normalised to probe only: 25.0833 and 25.2917 and 24.7708
PLpro-WT; 0.5 M PLP, time point 13
  fluorescence: 1275 and 1287 and 1260
  fluorescence normalised to probe only: 26.5625 and 26.8125 and 26.25
PLpro-WT; 0.5 M PLP, time point 14
  fluorescence: 1338 and 1358 and 1327
  fluorescence normalised to probe only: 27.875
PLpro-WT; 1.0 M PLP, time point 8
  fluorescence: 1812 and 1755 and 1796
  fluorescence normalised to probe only: 37.75 and 36.5625 and 37.4167
PLpro-WT; 1.0 M PLP, time point 9
  fluorescence: 1958 and 1902 and 1937
  fluorescence normalised to probe only: 40.7917 and 39.625 and 40.3542
PLpro-WT; 1.0 M PLP, time point 10
  fluorescence: 2101 and 2025 and 2064
  fluorescence normalised to probe only: 43.7708 and 42.1875 and 43
PLpro-WT; 1.0 M PLP, time point 11
  fluorescence: 2228 and 2143 and 2197
  fluorescence normalised to probe only: 46.4167 and 44.6458 and 45.7708
PLpro-WT; 1.0 M PLP, time point 12
  fluorescence: 2329 and 2259 and 2313
  fluorescence normalised to probe only: 48.5208 and 47.0625 and 48.1875
PLpro-WT; 1.0 M PLP, time point 13
  fluorescence: 2450 and 2363 and 2423
  fluorescence normalised to probe only: 51.0417 and 49.2292 and 50.4792
PLpro-WT; 1.0 M PLP, time point 14
  fluorescence: 2548 and 2459 and 2512
